≈ marks a conversion by molar mass, not a printed value. Read-outs that look alike come from different tables or passages of the source. Ends that are not written are not given here.
Columns and labels:
E. coli ML-35p = conditions: for E. coli ML-35p MIC, 0 mM NaCl: underlay 0 mM NaCl; for E. coli ML-35p MIC, 0 mM NaCl / E. coli ML-35p MIC, 175 mM NaCl: Table 15; for E. coli ML-35p MIC, 175 mM NaCl: underlay 175 mM NaCl
P. aeruginosa PAO1 = conditions: for EC50 P. aeruginosa PAO1: avg ± sem; for EC50 P. aeruginosa PAO1 μg/ml ± sem: average ± sem
E. coli DH-5α = conditions: DH-5α

Compound: KNLRRIIRKIIHIIKKYGPTILRIIRIIG-NH2 [SMAP29X]
- MIC MRSA [NaCl] High (MRSA ATCC 33591; ATCC 33591, pH 7.4): 1.0 µg/mL
- MIC MRSA [NaCl] Low (MRSA ATCC 33591; ATCC 33591, pH 7.4): 6.2 µg/mL
- MIC E. coli [NaCl] High (E. coli ML-35p; high salt underlay (10 mM sodium phosphate buffer +100 mM NaCl, pH 7.4), Table 13): 0.8 µg/mL
- MIC E. coli [NaCl] Low (E. coli ML-35p; low salt underlay (10 mM sodium phosphate buffer, pH 7.4), Table 13): 1.5 µg/mL
- MIC S. aureus [NaCl] High (S. aureus 930918-3; 930918-3, pH 7.4): 1.5 µg/mL
- MIC S. aureus [NaCl] Low (S. aureus 930918-3; 930918-3, pH 7.4): 1.6 µg/mL
- EC50 P. aeruginosa PAO1 (P. aeruginosa PAO1; ionic strength 25 mM): 2.74 ± 0.65 µg/mL
- EC50 P. aeruginosa PAO1 (P. aeruginosa PAO1; ionic strength 175 mM): 4.51 ± 0.24 µg/mL
- MIC P. aeruginosa [NaCl] High (P. aeruginosa MR 3007; MR 3007, pH 7.4): 1.0 µg/mL
- MIC P. aeruginosa [NaCl] Low (P. aeruginosa MR 3007; MR 3007, pH 7.4): 2.6 µg/mL

Compound: NLRRIIRKIIHIIKKY [SMAP29X-16A]
- EC50 P. aeruginosa PAO1 (P. aeruginosa PAO1; ionic strength 25 mM): 0.90 ± 0.54 µg/mL
- EC50 P. aeruginosa PAO1 (P. aeruginosa PAO1; ionic strength 175 mM): 1.78 ± 0.26 µg/mL

Compound: LRRIIRKIIHIIKK [Peptide 12]
- MRSA ATCC 33591 MIC, 0 mM NaCl (MRSA ATCC 33591): 11.0 ± 3.96 µg/mL
- MRSA ATCC 33591 MIC, 175 mM NaCl (MRSA ATCC 33591): >79.1 µg/mL
- P. aeruginosa PA-01 MIC, 0 mM NaCl (P. aeruginosa PA-01): 0.98 ± 0.05 µg/mL
- P. aeruginosa PA-01 MIC, 175 mM NaCl (P. aeruginosa PA-01): 11.9 ± 4.7 µg/mL
- E. coli ML-35p MIC, 0 mM NaCl (E. coli ML-35p): 0.68 ± 0.07 µg/mL
- E. coli ML-35p MIC, 175 mM NaCl (E. coli ML-35p): >79.1 µg/mL
- S. aureus 930918-3 MIC, 0 mM NaCl (S. aureus 930918-3): 2.40 ± 0.17 µg/mL
- S. aureus 930918-3 MIC, 175 mM NaCl (S. aureus 930918-3): 79.1 ± 0 µg/mL
- E. coli DH-5α MIC, 0 mM NaCl (E. coli DH-5α): 1.36 ± 0.19 µg/mL
- E. coli DH-5α MIC, 175 mM NaCl (E. coli DH-5α): 19.1 ± 5.0 µg/mL
- P. aeruginosa MR-3007 MIC, 0 mM NaCl (P. aeruginosa MR 3007): 0.98 ± 0.08 µg/mL
- P. aeruginosa MR-3007 MIC, 175 mM NaCl (P. aeruginosa MR 3007): 46.3 ± 9.1 µg/mL

Compound: RRIIRKIIHIIK-NH2 [SMAP29X-12]
- EC50 P. aeruginosa PAO1 μg/ml ± sem (P. aeruginosa PAO1; ionic strength 25 mM): 0.31 ± 0.01 µg/mL
- EC50 P. aeruginosa PAO1 μg/ml ± sem (P. aeruginosa PAO1; ionic strength 175 mM): 3.83 ± 0.22 µg/mL

Compound: IRRIIRKIIHIIKK-NH2 [Peptide 13]
- MRSA ATCC 33591 MIC, 0 mM NaCl (MRSA ATCC 33591): 2.39 ± 0.07 µg/mL
- MRSA ATCC 33591 MIC, 175 mM NaCl (MRSA ATCC 33591): >79.1 µg/mL
- P. aeruginosa PA-01 MIC, 0 mM NaCl (P. aeruginosa PA-01): 1.03 ± 0.08 µg/mL
- P. aeruginosa PA-01 MIC, 175 mM NaCl (P. aeruginosa PA-01): 7.45 ± 0.87 µg/mL
- S. aureus 930918-3 MIC, 0 mM NaCl (S. aureus 930918-3): 1.03 ± 0.03 µg/mL
- S. aureus 930918-3 MIC, 175 mM NaCl (S. aureus 930918-3): 5.93 ± 1.12 µg/mL
- P. aeruginosa MR-3007 MIC, 0 mM NaCl (P. aeruginosa MR 3007): 0.84 ± 0.06 µg/mL
- P. aeruginosa MR-3007 MIC, 175 mM NaCl (P. aeruginosa MR 3007): 19.7 ± 2.2 µg/mL

Compound: CC[C@H](C)[C@H](N)C(=O)N[C@@H](CCCNC(=N)N)C(=O)N[C@@H](CCCNC(=N)N)C(=O)N[C@H](C(=O)N[C@H](C(=O)N[C@@H](CCCNC(=N)N)C(=O)N[C@@H](CCCCN)C(=O)N[C@H](C(=O)N[C@H](C(=O)N[C@@H](Cc1c[nH]cn1)C(=O)N[C@H](C(=O)N[C@H](C(=O)N[C@@H](CCCCN)C(=O)N[C@@H](CCCCN)C(=O)O)[C@@H](C)CC)[C@@H](C)CC)[C@@H](C)CC)[C@@H](C)CC)[C@@H](C)CC)[C@@H](C)CC [SMAP29X-14D]
- EC50 P. aeruginosa PAO1 (P. aeruginosa PAO1; ionic strength 25 mM): 0.65 ± 0.06 µg/mL (≈ 0.361 µM)
- EC50 P. aeruginosa PAO1 (P. aeruginosa PAO1; ionic strength 175 mM): 7.11 ± 2.40 µg/mL (≈ 3.95 µM)

Compound: LRRIIRKIIHIIK-NH2 [Peptide 15]
- MRSA ATCC 33591 MIC, 0 mM NaCl (MRSA ATCC 33591): 2.49 ± 0.27 µg/mL
- MRSA ATCC 33591 MIC, 175 mM NaCl (MRSA ATCC 33591): 65.8 ± 13.3 µg/mL
- P. aeruginosa PA-01 MIC, 0 mM NaCl (P. aeruginosa PA-01): 1.07 ± 0.19 µg/mL
- P. aeruginosa PA-01 MIC, 175 mM NaCl (P. aeruginosa PA-01): 4.66 ± 1.57 µg/mL
- E. coli ML-35p MIC, 0 mM NaCl (E. coli ML-35p): 0.64 ± 0.15 µg/mL
- E. coli ML-35p MIC, 175 mM NaCl (E. coli ML-35p): 12.6 ± 2.8 µg/mL
- S. aureus 930918-3 MIC, 0 mM NaCl (S. aureus 930918-3): 1.32 ± 0.22 µg/mL
- S. aureus 930918-3 MIC, 175 mM NaCl (S. aureus 930918-3): 6.39 ± 1.12 µg/mL
- E. coli DH-5α MIC, 0 mM NaCl (E. coli DH-5α): 0.82 ± 0.12 µg/mL
- E. coli DH-5α MIC, 175 mM NaCl (E. coli DH-5α): 5.35 ± 1.87 µg/mL
- P. aeruginosa MR-3007 MIC, 0 mM NaCl (P. aeruginosa MR 3007): 0.96 ± 0.08 µg/mL
- P. aeruginosa MR-3007 MIC, 175 mM NaCl (P. aeruginosa MR 3007): 9.14 ± 4.81 µg/mL

Compound: CC[C@H](C)[C@H](NC(=O)[C@H](CCCNC(=N)N)NC(=O)[C@H](CCCNC(=N)N)NC(=O)[C@@H](NC(=O)[C@@H](N)CC(N)=O)[C@@H](C)CC)C(=O)N[C@H](C(=O)N[C@@H](CCCNC(=N)N)C(=O)N[C@@H](CCCCN)C(=O)N[C@H](C(=O)N[C@H](C(=O)N[C@@H](Cc1c[nH]cn1)C(=O)N[C@H](C(=O)N[C@H](C(=O)N[C@@H](CCCCN)C(=O)N[C@@H](CCCCN)C(=O)N[C@@H](Cc1ccc(O)cc1)C(N)=O)[C@@H](C)CC)[C@@H](C)CC)[C@@H](C)CC)[C@@H](C)CC)[C@@H](C)CC [SMAP29X-16C]
- EC50 P. aeruginosa PAO1 (P. aeruginosa PAO1; ionic strength 25 mM): 0.65 µg/mL (≈ 0.313 µM)
- EC50 P. aeruginosa PAO1 (P. aeruginosa PAO1; ionic strength 175 mM): 2.21 µg/mL (≈ 1.06 µM)

Compound: LRRIIRKIIHIIKK [SMAP29X-14B]
- EC50 P. aeruginosa PAO1 (P. aeruginosa PAO1; ionic strength 25 mM): 0.55 ± 0.03 µg/mL
- EC50 P. aeruginosa PAO1 (P. aeruginosa PAO1; ionic strength 175 mM): 5.55 ± 0.42 µg/mL

Compound: NIRRIIRKIIHIIKKY [SMAP29X-16D]
- EC50 P. aeruginosa PAO1 (P. aeruginosa PAO1; ionic strength 25 mM): 0.70 ± 0.36 µg/mL
- EC50 P. aeruginosa PAO1 (P. aeruginosa PAO1; ionic strength 175 mM): 3.64 ± 1.75 µg/mL

Compound: RGLRALGRKIAHGVKAYG [SMAP29-18AA]
- EC50 P. aeruginosa PAO1 (P. aeruginosa PAO1; ionic strength 25 mM): 0.62 ± 0.13 µg/mL
- EC50 P. aeruginosa PAO1 (P. aeruginosa PAO1; ionic strength 175 mM): 7.85 ± 1.16 µg/mL

Compound: KNIRRIIRKIIHIIKKYG-NH2 [SMAP29X-18B]
- EC50 P. aeruginosa PAO1 (P. aeruginosa PAO1; ionic strength 25 mM): 0.16 ± 0.01 µg/mL
- EC50 P. aeruginosa PAO1 (P. aeruginosa PAO1; ionic strength 175 mM): 0.54 ± 0.05 µg/mL
